{
  "source": "paper PMC9911596",
  "about": "(Nature Communications, 2023)",
  "target": "T1, Vtc1/Vtc3/Vtc4 complex (VTC complex) (Saccharomyces cerevisiae, UniProt P47075+Q02725, Q02725:K126A/Q02725:K129A/Q02725:K133A)",
  "T1 construct": "full-length subunits co-expressed in Expi293F; Vtc1 C-terminal HA, Vtc3 N-terminal 3xFlag, Vtc4 C-terminal 2xStrep; detergent-purified; 3:1:1 pentamer; with Vacuolar transporter chaperone complex subunit 1",
  "T1 sequence (P47075 1-721)": "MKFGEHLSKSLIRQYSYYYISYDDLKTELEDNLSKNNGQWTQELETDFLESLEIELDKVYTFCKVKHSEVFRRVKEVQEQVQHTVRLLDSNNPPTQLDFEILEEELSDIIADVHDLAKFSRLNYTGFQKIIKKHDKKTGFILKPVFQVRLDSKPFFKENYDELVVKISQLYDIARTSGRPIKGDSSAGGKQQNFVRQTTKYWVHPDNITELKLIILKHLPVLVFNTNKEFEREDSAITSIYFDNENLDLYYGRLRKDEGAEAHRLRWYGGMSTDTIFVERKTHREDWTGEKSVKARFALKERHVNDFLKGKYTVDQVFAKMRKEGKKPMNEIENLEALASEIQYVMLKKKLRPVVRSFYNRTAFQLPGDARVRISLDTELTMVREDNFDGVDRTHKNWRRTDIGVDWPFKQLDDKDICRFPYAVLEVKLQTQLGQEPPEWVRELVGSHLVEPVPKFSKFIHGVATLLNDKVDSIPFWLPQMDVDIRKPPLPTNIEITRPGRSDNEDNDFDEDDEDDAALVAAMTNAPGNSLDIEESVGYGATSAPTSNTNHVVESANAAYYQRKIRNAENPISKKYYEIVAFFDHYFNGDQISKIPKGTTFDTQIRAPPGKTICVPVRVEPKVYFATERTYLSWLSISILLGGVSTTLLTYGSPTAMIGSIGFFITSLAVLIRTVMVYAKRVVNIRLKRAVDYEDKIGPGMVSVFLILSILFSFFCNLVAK",
  "T1 sequence (Q02725 1-835 K126A/K129A/K133A)": "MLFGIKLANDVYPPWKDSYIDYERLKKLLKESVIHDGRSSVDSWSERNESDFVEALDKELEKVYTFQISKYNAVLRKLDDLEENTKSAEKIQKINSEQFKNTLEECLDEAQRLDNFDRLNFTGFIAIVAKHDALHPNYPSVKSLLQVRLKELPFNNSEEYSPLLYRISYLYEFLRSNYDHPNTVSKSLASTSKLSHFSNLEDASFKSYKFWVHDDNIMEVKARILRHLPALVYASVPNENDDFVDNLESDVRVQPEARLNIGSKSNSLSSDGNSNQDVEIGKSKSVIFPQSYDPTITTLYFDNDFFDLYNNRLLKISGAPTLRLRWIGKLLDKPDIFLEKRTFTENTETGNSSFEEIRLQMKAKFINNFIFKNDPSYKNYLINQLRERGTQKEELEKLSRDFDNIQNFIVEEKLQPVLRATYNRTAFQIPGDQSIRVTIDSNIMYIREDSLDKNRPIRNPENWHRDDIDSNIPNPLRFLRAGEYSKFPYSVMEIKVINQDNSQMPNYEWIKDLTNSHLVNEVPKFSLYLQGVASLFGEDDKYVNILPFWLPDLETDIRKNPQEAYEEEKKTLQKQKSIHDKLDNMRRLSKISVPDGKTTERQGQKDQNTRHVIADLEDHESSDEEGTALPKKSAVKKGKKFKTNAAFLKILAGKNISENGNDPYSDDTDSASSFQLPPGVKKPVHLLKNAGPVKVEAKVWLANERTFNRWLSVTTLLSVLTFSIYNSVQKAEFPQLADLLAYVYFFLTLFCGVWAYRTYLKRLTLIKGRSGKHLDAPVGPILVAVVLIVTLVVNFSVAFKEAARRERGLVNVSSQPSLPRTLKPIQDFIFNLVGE",
  "T1 sequence (P40046 2-129 partner)": "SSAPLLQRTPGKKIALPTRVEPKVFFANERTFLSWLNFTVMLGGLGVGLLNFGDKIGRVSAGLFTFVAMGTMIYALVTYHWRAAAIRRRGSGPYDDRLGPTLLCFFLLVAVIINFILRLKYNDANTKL",
  "assay": "polyP synthesis, TBE-PAGE",
  "format": "biochemical",
  "settings": "activator; 15 mM ATP, 10 mM MgCl2, 1 mM MnCl2, 0.5 mM pyrophosphate, 27 °C, 4 h; SPX KSC mutant",
  "data": [
    {"smiles": "O=P(O)(O)O[C@H]1[C@H](OP(=O)(O)O)[C@@H](OP(=O)(O)O)[C@H](OP(=O)(O)O)[C@@H](OP(=O)(O)O)[C@H]1OP(=O)(O)O", "note": "[InsP6]", "values": [
      {"measurement": "polyP synthesis, TBE-PAGE", "result": "residues had little effect on polyP synthesis"}
    ]}
  ]
}
